Results reported in the supplement of paper PMC4932681.

What was measured:
BT-474 Tam1 [1] = test: drug sensitivity score (DSS) (DSS (dimensionless)); higher = more sensitive; extreme values may be limits of the assay; conditions: 4-OH-tamoxifen in medium 1 µM; 72 h
Summary of the method: (§1)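 Breast cancer cell lines and their resistant derivatives were seeded into 384-well plates holding FO2Baq library drugs at five concentrations spanning a 10 000-fold range. Resistant lines were in medium with 1 μM of the selecting drug. Cells were incubated 72 h at 37 °C, and CellTiter-Glo viability was read on a PHERAstar and normalised to vehicle-only and positive controls. Drug sensitivity score, relative IC50 (curve midpoint) and top-dose inhibition came from logistic dose–response fits (Breeze pipeline).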

BT-474 Tam2 [2] = test: as above; conditions: 4-OH-tamoxifen in medium 1 µM; 72 h
Summary of the method: as §1

BT-474 [3] = test: as above; conditions: 72 h
Summary of the method: as §1

MCF-7 Tam1 [4] = test: as above; conditions: 4-OH-tamoxifen in medium 1 µM; 72 h
Summary of the method: as §1

MCF-7 [5] = test: as above; conditions: 72 h
Summary of the method: as §1

T-47D Tam1 [6] = test: as above; conditions: 4-OH-tamoxifen in medium 1 µM; 72 h
Summary of the method: as §1

T-47D Tam2 [7] = test: as above; conditions: 4-OH-tamoxifen in medium 1 µM; 72 h
Summary of the method: as §1

T-47D [8] = test: as above; conditions: 72 h
Summary of the method: as §1

ZR-75-1 Tam1 [9] = test: as above; conditions: 4-OH-tamoxifen in medium 1 µM; 72 h
Summary of the method: as §1

ZR-75-1 Tam2 [10] = test: as above; conditions: 4-OH-tamoxifen in medium 1 µM; 72 h
Summary of the method: as §1

ZR-75-1 [11] = test: as above; conditions: 72 h
Summary of the method: as §1

BT-474 Tam1 [12] = test: relative IC50 (midpoint of fitted logistic curve, plateau may be below 50% inhibition; CellTiter-Glo viability); higher = less potent; conditions: 4-OH-tamoxifen in medium 1 µM; 72 h
Summary of the method: as §1

BT-474 Tam2 [13] = test: as above; conditions: 4-OH-tamoxifen in medium 1 µM; 72 h
Summary of the method: as §1

BT-474 [14] = test: as above; conditions: 72 h
Summary of the method: as §1

MCF-7 Tam1 [15] = test: as above; conditions: 4-OH-tamoxifen in medium 1 µM; 72 h
Summary of the method: as §1

MCF-7 [16] = test: as above; conditions: 72 h
Summary of the method: as §1

T-47D Tam1 [17] = test: as above; conditions: 4-OH-tamoxifen in medium 1 µM; 72 h
Summary of the method: as §1

T-47D Tam2 [18] = test: as above; conditions: 4-OH-tamoxifen in medium 1 µM; 72 h
Summary of the method: as §1

T-47D [19] = test: as above; conditions: 72 h
Summary of the method: as §1

ZR-75-1 Tam1 [20] = test: as above; conditions: 4-OH-tamoxifen in medium 1 µM; 72 h
Summary of the method: as §1

ZR-75-1 Tam2 [21] = test: as above; conditions: 4-OH-tamoxifen in medium 1 µM; 72 h
Summary of the method: as §1

ZR-75-1 [22] = test: as above; conditions: 72 h
Summary of the method: as §1

SMILES	drug sensitivity score (BT-474 Tam1 [1])	drug sensitivity score (BT-474 Tam2 [2])	drug sensitivity score (BT-474 [3]; 4-OH-tamoxifen in medium 0 µM)	drug sensitivity score (BT-474 [3]; 4-OH-tamoxifen in medium 1 µM)	drug sensitivity score (MCF-7 Tam1 [4])	drug sensitivity score (MCF-7 [5]; 4-OH-tamoxifen in medium 0 µM)	drug sensitivity score (MCF-7 [5]; 4-OH-tamoxifen in medium 1 µM)	drug sensitivity score (T-47D Tam1 [6])	drug sensitivity score (T-47D Tam2 [7])	drug sensitivity score (T-47D [8]; 4-OH-tamoxifen in medium 0 µM)	drug sensitivity score (T-47D [8]; 4-OH-tamoxifen in medium 1 µM)	drug sensitivity score (ZR-75-1 Tam1 [9])	drug sensitivity score (ZR-75-1 Tam2 [10])	drug sensitivity score (ZR-75-1 [11]; 4-OH-tamoxifen in medium 0 µM)	drug sensitivity score (ZR-75-1 [11]; 4-OH-tamoxifen in medium 1 µM)	relative IC50 (BT-474 Tam1 [12]) [nM]	relative IC50 (BT-474 Tam2 [13]) [nM]	relative IC50 (BT-474 [14]; 4-OH-tamoxifen in medium 0 µM) [nM]	relative IC50 (BT-474 [14]; 4-OH-tamoxifen in medium 1 µM) [nM]	relative IC50 (MCF-7 Tam1 [15]) [nM]	relative IC50 (MCF-7 [16]; 4-OH-tamoxifen in medium 0 µM) [nM]	relative IC50 (MCF-7 [16]; 4-OH-tamoxifen in medium 1 µM) [nM]	relative IC50 (T-47D Tam1 [17]) [nM]	relative IC50 (T-47D Tam2 [18]) [nM]	relative IC50 (T-47D [19]; 4-OH-tamoxifen in medium 0 µM) [nM]	relative IC50 (T-47D [19]; 4-OH-tamoxifen in medium 1 µM) [nM]	relative IC50 (ZR-75-1 Tam1 [20]) [nM]	relative IC50 (ZR-75-1 Tam2 [21]) [nM]	relative IC50 (ZR-75-1 [22]; 4-OH-tamoxifen in medium 0 µM) [nM]	relative IC50 (ZR-75-1 [22]; 4-OH-tamoxifen in medium 1 µM) [nM]
COc1cccc2cc(-c3nc([C@H]4CC[C@H](C(=O)O)CC4)n4ncnc(N)c34)[nH]c12 [OSI-027]	7.62	5.03	5.02	6.48	2.71	4.23	4.31	15.8	8.2	11.9	5.99	9.81	12.5	11	11	203	338	333	697	713	1420	1160	134	131	246	543	219	198	263	132
COc1nc(N)nc2c1ncn2[C@@H]1O[C@H](CO)[C@@H](O)[C@@H]1O [Nelarabine]	0	0	0	0	0	0.277	0	0	0	0	0	0	0	0.0337	0	> 10000	> 10000	> 10000	> 10000	> 10000	–	> 10000	> 10000	> 10000	> 10000	> 10000	> 10000	> 10000	–	> 10000
C[C@@H]1C=C2C(=O)O[C@@H]3CC[C@H](C1)[C@]23O [Galiellalactone]	2.19	0	0	2.65	0	6.75	0.391	3.53	2.32	2.52	1.56	0	0	0	0	19100	> 50000	> 50000	17300	> 50000	7000	> 50000	8360	13800	20000	30100	> 50000	> 50000	> 50000	> 50000
Nc1nc2[nH]cc(CCc3ccc(C(=O)N[C@@H](CCC(=O)O)C(=O)O)cc3)c2c(=O)[nH]1 [Pemetrexed]	0	0	0	0	0	0	0.305	0	0	0	0	0	0	0	0	> 10000	> 10000	> 10000	> 10000	> 10000	> 10000	–	> 10000	> 10000	> 10000	–	> 10000	> 10000	> 10000	> 10000
C#Cc1cccc(Nc2ncnc3cc(OC)c(OCCCCCCC(=O)NO)cc23)c1 [CUDC-101]	12.6	10.2	9.66	21.9	2.26	7.91	8.89	11.7	8.37	10.3	12.3	4.08	4.71	3.69	4.14	680	1130	1190	137	3520	1720	1540	656	1180	1190	803	1150	1740	1600	1920
Cc1ccc(C(=O)N(CCCN)[C@@H](c2oc3cc(Cl)ccc3c(=O)c2Cc2ccccc2)C(C)C)cc1	0	0	0	0	0	0	0.514	0	0	0	0	0	0	0	0	> 100	> 100	> 100	> 100	> 100	> 100	–	> 100	> 100	> 100	> 100	> 100	> 100	> 100	> 100
NC(=O)NO [Hydroxyurea]	0	0	0	0.154	0	0	0	0	0	0	0	0	0	0	0	> 100000	> 100000	> 100000	–	> 100000	> 100000	–	> 100000	> 100000	> 100000	> 100000	> 100000	> 100000	> 100000	> 100000
CN(C)/N=N/c1[nH]cnc1C(N)=O [Dacarbazine]	0	0	0	0	0	0	0.0214	0	0	0	0	0	0	0	0	> 10000	> 10000	> 10000	> 10000	> 10000	> 10000	–	> 10000	> 10000	> 10000	> 10000	> 10000	> 10000	> 10000	> 10000
CC(=O)[C@]1(O)Cc2c(O)c3c(c(O)c2[C@@H](O[C@H]2C[C@H](N)[C@H](O)[C@H](C)O2)C1)C(=O)c1ccccc1C3=O [Idarubicin]	3.94	3.03	4.38	4.91	1.86	6.65	5.56	8.94	2.4	8.26	3.11	5.45	7.63	6.29	5.81	394	371	309	349	331	191	187	123	313	97.4	329	127	86	120	111
CO[C@H]1/C=C\C=C(/C)C(=O)NC2=CC(=O)C(NCCN(C)C)=C(C[C@@H](C)C[C@H](OC)[C@H](O)[C@@H](C)/C=C(\C)[C@@H]1OC(N)=O)C2=O [Alvespimycin (17-DMAG)]	16.9	17.6	12.2	19.4	4.36	12.6	8.71	1.14	3.87	3.17	3.41	3.49	5.93	3.36	6.21	15.3	14.6	13.1	8.88	48	22.5	30	424	196	259	142	95	71	85.8	75.2
Nc1cc(C(F)(F)F)c(-c2cc(N3CCOCC3)nc(N3CCOCC3)n2)cn1 [Buparlisib (BKM-120)]	9.32	8.94	5.66	11.1	4.41	10.8	9.9	9.5	8.09	9.27	7.4	7.01	7.44	6.24	5.88	1350	1400	1730	870	1230	561	622	687	1090	931	1520	710	963	990	931
O=P1(NCCCl)OCCCN1CCCl (stereo not given) [Ifosfamide]	0	0	0	0	0	0	0.24	0	0	0	0	0	0	0	0	> 10000	> 10000	> 10000	> 10000	> 10000	> 10000	–	> 10000	> 10000	> 10000	> 10000	> 10000	> 10000	> 10000	> 10000
Cc1cccc(-c2nn3c(c2-c2ccnc4ccc(C(N)=O)cc24)CCC3)n1	0	0	0	0	0	0	0.246	0	0	0	0	0	0	0	0	> 1000	> 1000	> 1000	> 1000	> 1000	> 1000	–	> 1000	> 1000	> 1000	> 1000	> 1000	> 1000	> 1000	> 1000
COc1cccc2c1C(=O)c1c(O)c3c(c(O)c1C2=O)C[C@@](O)(C(C)=O)C[C@@H]3O[C@H]1C[C@H](N)[C@H](O)[C@H](C)O1 [Daunorubicin]	3.18	1.15	2.33	4.51	1.34	6.15	7.3	6.95	4.19	7.41	3.69	5.81	6.6	6.15	5.38	398	393	385	375	341	208	189	133	282	134	350	164	150	138	124
